Assay results from patent publication US12329828B2, “Pyrimidine nucleoside compounds for fluorescence imaging and spectroscopy” (San Diego State University Foundation, priority 2020, dated 2025).
Several values for one entry are separate records, joined by “and”; a condition that tells them apart may be missing. Equal entries are not always repeated. Marks after values point to notes of the source that are not given here. One block for each compound: values may come before it.

Legend:
Format in all cases: physicochemical
[1] = Steady-state absorption and fluorescence of the ABN nucleoside in solvents
From the text: Photophysical properties. Steady-state measurements. […] Owing to the conjugated push-pull system in the design of ABN, the absorption and emission wavelengths are the longest known for a FBA designed to be capable of Watson-Crick hydrogen bonding. Recorded emission spectra in water using excitation wavelengths ranging from 310-500 nm are nearly superposable, as are excitation spectra recorded for emission wavelengths spanning 500-650 nm. These observations support the predominance of a single tautomeric form in dilute, aqueous solution.
(§1) Quantum yields measurements. Experiments were measured in a quartz sub-micro cuvette (10 mm path length) purchased from Starnacell Inc. Steady state emission scans were recorded using a PTI QuantaMaster QM-400 and absorbances were measured on a Shimadzu UV-1700 Pharmaspec spectrometer. Quantum yield measurements were performed the comparative method of Williams et. al. and measured in duplicate, at minimum. Coumarin 153 in ethanol was used as a reference standard for all photophysical measurements. All measurements were taken with an absorbance range of 0.01-0.1. Subsequent dilutions were performed stepwise in order to obtain a minimum of six absorbance and emission spectra for quantum yield determinations.

[2] = Steady-state photophysical measurements of ABN in single-stranded and duplex DNA oligonucleotides
From the text: Next, we measured the fluorescence of ABN in single-stranded and duplex DNA oligonucleotides to determine how base pairing and stacking influence its photophysical properties (Table 2). ABN increases its fluorescence to Φem=0.50-0.53 in matched duplex DNA oligonucleotides when base paired with A and Φem=0.55 when the analogue is present in the hairpin loop of ODN1. The quantum yield is less, 0.40 and 0.29, in ODN1:ODN3 and ODN4:ODN6 respectively, in which ABN is base paired with G. In ODN7:ODN9 Φem,=0.55, slightly greater than when base paired with A. In all of these single-stranded and duplex sequences, ABN is brighter than any other known FBA when present in oligonucleotides.
as §1

[3] = One-photon single-molecule total internal reflection fluorescence (smTIRF) microscopy
From the text: The red-shifted absorption profile, high 2P brightness and predominance of the bright state made ABN a promising candidate for single-molecule detection via 1P excitation. […] Furthermore, these fluorescent puncta underwent single-step photobleaching under constant irradiation (FIG. 4B), consistent with the idea that ABN has suitable optical properties to be used as a single-molecule fluorescent nucleoside. By quantifying >2000 individual trajectories, we were able to determine the mean total detected photon value of 5300±1800 photons per molecule; furthermore, a mean of 1500±600 photons were detected per 100 ms integration from each molecule at a power density of 0.2 kW cm^−2.
Sample and slide preparation for IP method. ABN (10 mM, DMSO) was diluted into filtered (0.2 μm syringe filter, Whatman, 6780-1302) PBS (pH 7.4) to a working concentration of 100 nM. Borosilicate glass coverslips (VWR Int, 22×22 mm) were cleaned for 1 hour using an argon plasma (PDC-002, Harrick Plasma). Frame-Seal slide chambers (9×9 mm^2, Biorad, Hercules, CA) were affixed to the glass and the slides washed three times with filtered PBS (3×50 μL). The working solution of ABN (100 nM, 50 μL) was added to the slide and left for 3-minutes allowing for some of the ABN molecules to adsorb to the plasma-cleaned glass surface. […]
Single-molecule imaging. Single-molecule fluorescence imaging of ABN was performed on a bespoke total internal reflection fluorescence microscope using a 488 nm continuous wavelength diode laser (iBeamSMART, Toptica, 200.46 Wcm^−2). […] Fluorescence emission was collected by the same objective lens and separated from excitation light using a dichroic mirror (Di01-R405/488/561/635, Semrock) and passed through appropriate emission filters (BLP01-488R-25, FF01-520/44-25, Semrock). The fluorescence was then expanded (1.5×) and focused onto an electron-multiplying charge-coupled device (EMCCD, Evolve 512 Delta, Photometrics) with an electron multiplication gain of 250 ADU/photon operating in frame transfer mode. […]
Data analysis. A custom ImageJ macro was used to determine the total number of photons detected from single ABN emitters. The frames from single-molecule movies were summed and the pixel of peak intensity from each molecule was determined using the inbuilt ‘Find Maxima’ function (prominence threshold=20,000). The single emitters were selected from a 6×6 region surrounding the pixel of peak intensity and the total integrated intensity of the region was measured. […] The intensity per ABN emitter was converted from counts to photons detected by dividing the integrated signal above background by the total gain of the EMCCD (35.7 ADU/photon).

[4] = Two-photon single-molecule characterization (fluorescence correlation spectroscopy)
From the text: Single-molecule fluorescence measurements. Given the very attractive bulk-level photophysical properties of ABN in solution, we next investigated its potential as a single-molecule probe. […] In a later study, the base analogue DMA^thaU was detected as a free nucleoside at the single-molecule level for the first time via multiphoton excitation with a brightness of […] per molecule following three-photon excitation (see Phys. Chem. Chem. Phys. 2018, 20 (45), 28487; and J. Phys. Chem. Lett. 2019, 10 (17), 5008). […] The 2P brightness was measured using fluorescence correlation spectroscopy (FCS) and found to match that of DMA^thaU at 7 kHz per molecule (FIG. 3B).
Sample preparation for 2P method. All experiments were done with a solution of approximately 100 nM of ABN in TRIS buffer (20 mM TRIS base) at a pH of 7.5. The molecules were initially dissolved in DMSO (at a concentration of 100 μM) and subsequently diluted in buffer. The TRIS buffer was prepared with ultrapure water (Direct Q3, Merck Millipore), TRIS-base (20 mM, Trizma base, BioUltra, Sigma-Aldrich) and 150 mM NaCl (analytical reagent grade, Fluka). The pH was adjusted to 7.5 with a HCl solution (Sigma-Aldrich). Prior to sample preparation, the buffer was filtered with activated charcoal (Darco, Fluca) and through a 0.2 μm filter (Milex, Merck).
Two photon microscope. The two-photon microscope is a homebuilt pulse-shaper assisted setup with a ultra-broadband Ti:Sa laser as light source, recently described (R. S. Fisher, et al., Phys. Chem. Chem. Phys., 20, 28487 (2018)). The excitation source was a broadband Ti: Sapphire laser with a repetition rate of 80 MHz and a spectrum centered on 800 nm with a FWHM of 135 nm (Vitara UBB, Coherent). […] Sample fluorescence was collected by the same objective and transmitted through a dichroic mirror (Chroma 675dcspxr) and a short pass filter (Semrock FF01-650/SP), split by a polarising beamsplitter cube and detected by two avalanche photodiodes (MPD PDM 50c and 1MPD $PD-050-CTB). The signal was subsequently detected by a hardware correlator (ALV-7002, ALV GmbH).

[5] = Steady-state photophysical measurements of ABN in single-stranded and duplex DNA oligonucleotides; details: 1×PBS buffer (pH 7.4), different concentrations
[6] = Melting temperatures of ABN-containing oligonucleotides (temperature-dependent circular dichroism); details: for Tm: ABN-containing hairpin or duplex
From the text: Temperature-dependent circular dichroism measurements of all six duplexes are consistent with the B-DNA conformation with only minimal perturbation (Table 2). Except in the ODN1 hairpin, where ABN is expected to be mostly solvent exposed, the melting temperatures of the duplexes are typically somewhat depressed as compared with their natural counterparts. Duplex stability is lowest when ABN has 5′-G and 3′-C neighbors, an observation consistent with other tricyclic FBAs, especially those that are electron-rich. The observed melting temperatures provide little indication of whether ABN is a better T- or C-surrogate.

[7] = ABN in DNA oligonucleotide, 1×PBS buffer (pH 7.4)
[8] = Tm of ABN-containing duplex − Tm of corresponding duplex with canonical thymidine in place of ABN

- λem, max [1]: 540 nm
- ε · Φem (brightness) ([1]; 1,4-dioxane): 19000 M⁻¹ cm⁻¹
- λem, max ([1]; 1,4-dioxane): 474 nm
- λex, max ([1]; 1,4-dioxane): 420 nm
- Φem ([1]; 1,4-dioxane, emission 474 nm): 0.64
- Φem ([1]; 1 × PBS pH 7.4): 0.39
- λex, max ([1]; 1 × PBS pH 7.4): 442 nm
- ε · Φem (brightness) ([1]; H2O): 7800 M⁻¹ cm⁻¹
- λem, max ([1]; H2O): 540 nm
- λex, max ([1]; H2O): 442 nm
- Φem ([1]; H2O, emission 540 nm): 0.39
- red shift of absorption relative to closest competitors on brightness (pA, coumarin nucleoside) ([1]; aqueous solution): more than 50 nm
- red shift of emission relative to closest competitors on brightness (pA, coumarin nucleoside) ([1]; aqueous solution): > 80 nm
- Φem ([2]; in matched duplex DNA oligonucleotides, base paired with A): 0.50-0.53
- mean total on-time ([3]; 0.2 kW cm^−2): 0.35 ± 0.18 s
- mean number of photons detected per frame per single molecule ([3]; 488 nm, 0.2 kW cm^−2, 100 ms integration): 1500±600 photons/100 ms
- mean total number of photons detected per single molecule ([3]; 488 nm, 0.2 kW cm^−2, log-normal fit, N=2402 molecules): 5300±1800 photons
- brightness following 1P excitation ([3]; one-photon excitation): 15 kHz per molecule
- bright/dark state by controlled dilution ([4]; FCS, controlled dilution): exclusively in a bright state
- fraction of compound in a bright state ([4]; single-molecule fluorescence measurements): > 95%
Compound: CCN(CC)c1ccc2cc3cc([C@H]4C[C@@H](O)[C@@H](CO)O4)c(=O)nc-3[nH]c2c1 [ABN, 8-(diethylamino)-3-((2R,4R,5R)-4-hydroxy-5-(hydroxymethyl)tetrahydrofuran-2-yl)benzo[b][1,8]naphthyridin-2(10H)-one]
- 2P brightness (average count rate per molecule) ([4]; FCS, two-photon excitation, 100 nM in TRIS buffer, excitation power 11 mW): 7 kHz per molecule and 7±0.5 kHz per molecule

Compound: ODN7: 10-mer CGC AGX CTC G (SEQ ID NO: 3), X = ABN (ABN nucleoside, as printed in the source, key not given here)
- concentration dependence of absorption spectra [5]: concentration dependent
- Φem [2, 7]: 0.62
- λem, max [2, 7]: 532 nm

Compound: ODN4: 10-mer CGC AAX ATC G (SEQ ID NO: 2), X = ABN (ABN nucleoside, as printed in the source, key not given here)
- Φem [2, 7]: 0.49
- λabs, max [2, 7]: 452 nm
- λem, max [2, 7]: 540 nm

Compound: ODN1:ODN2: duplex of ODN1 with ODN2 (HairpinA, SEQ ID NO: 4); ABN base paired with A (chain 1 GCTTAGCAGGNTAGTGCTAAGC; chain 2 GCTTAGCACTAACCTGCTAAGC; ABN nucleoside, chemistry not fully specified)
- Φem [2, 7]: 0.53
- λabs, max [2, 7]: 440 nm
- λem, max [2, 7]: 530 nm
- Tm [6]: 61.8 ± 0.4 °C
- ΔTm [6, 8]: −4.7 °C

Compound: ODN1: hairpin GCT TAG CAG GXT AGT GCT AAG C (SEQ ID NO: 1), X = ABN in loop (GCT TAG CAG GXTAGT GCT AAG C; ABN abasic-like nucleoside in loop, as printed in the source, key not given here)
- Φem [2, 7]: 0.55
- λabs, max [2, 7]: 450 nm
- λem, max [2, 7]: 530 nm
- Tm [6]: 63.6 ± 0.6 °C
- ΔTm [6, 8]: +3.1 °C

Compound: ODN1:ODN3: duplex of ODN1 with ODN3 (HairpinG, SEQ ID NO: 5); ABN base paired with G (chain 1 GCTTAGCAGGNTAGTGCTAAGC; chain 2 GCTTAGCACTAGCCTGCTAAGC; ABN nucleoside, chemistry not fully specified)
- Φem [2, 7]: 0.40
- λabs, max [2, 7]: 468 nm
- λem, max [2, 7]: 523 nm
- Tm [6]: 61.3 ± 0.6 °C
- ΔTm ([6]; comparison with Tm of the corresponding natural duplex with a C:G base pair): +1.6^c ° C.
